# According to patent US12371411B2, “Water and thermal treatment of purified 2,5-furandicarboxylic acid” (Furanix Technologies B.V., priority 2019, dated 2025):
# Experiment: Solubility of FDCA for a given temperature and solvent
# Type: physicochemical
# Conditions: for Solubility at T, wt % in solvent / Solubility at temp., wt % in solvent: estimated FDCA solubility
# Excerpt: The skilled person can adjust the thermal treatment conditions to the required degree of dissolution, wherein the following table can be used that lists values for the solubility of FDCA at a given temperature depending on the solvent composition employed. […] Intermediate values can be obtained by interpolation.
# For a better understanding, the estimated FDCA solubility in the given solvent at the process temperature is provided as well.
smiles,measurement,setting,value
"O=C(O)c1ccc(C(=O)O)o1 [FDCA, 2,5-Furandicarboxylic acid]",Solubility of FDCA,"HAc:Water 0:100 by weight, 140° C.",7.0 wt %
same,Solubility of FDCA,"HAc:Water 0:100 by weight, 150° C.",9.2 wt %
same,Solubility of FDCA,"HAc:Water 0:100 by weight, 160° C.",11.7 wt %
same,Solubility of FDCA,"HAc:Water 0:100 by weight, 170° C.",14.8 wt %
same,Solubility of FDCA,"HAc:Water 0:100 by weight, 180° C.",18.4 wt %
same,Solubility of FDCA,"HAc:Water 0:100 by weight, 190° C.",22.4 wt %
same,Solubility of FDCA,"HAc:Water 0:100 by weight, 200° C.",26.8 wt %
same,Solubility of FDCA,"HAc:Water 10:90 by weight, 140° C.",7.7 wt %
same,Solubility of FDCA,"HAc:Water 10:90 by weight, 150° C.",9.9 wt %
same,Solubility of FDCA,"HAc:Water 10:90 by weight, 160° C.",12.6 wt %
same,Solubility of FDCA,"HAc:Water 10:90 by weight, 170° C.",15.6 wt %
same,Solubility of FDCA,"HAc:Water 10:90 by weight, 180° C.",19.2 wt %
same,Solubility of FDCA,"HAc:Water 10:90 by weight, 190° C.",23.1 wt %
same,Solubility of FDCA,"HAc:Water 10:90 by weight, 200° C.",27.4 wt %
same,Solubility of FDCA,"HAc:Water 20:80 by weight, 140° C.",8.3 wt %
same,Solubility of FDCA,"HAc:Water 20:80 by weight, 150° C.",10.6 wt %
same,Solubility of FDCA,"HAc:Water 20:80 by weight, 160° C.",13.3 wt %
same,Solubility of FDCA,"HAc:Water 20:80 by weight, 170° C.",16.3 wt %
same,Solubility of FDCA,"HAc:Water 20:80 by weight, 180° C.",19.8 wt %
same,Solubility of FDCA,"HAc:Water 20:80 by weight, 190° C.",23.7 wt %
same,Solubility of FDCA,"HAc:Water 20:80 by weight, 200° C.",27.8 wt %
same,Solubility of FDCA,"HAc:Water 30:70 by weight, 140° C.",8.9 wt %
same,Solubility of FDCA,"HAc:Water 30:70 by weight, 150° C.",11.1 wt %
same,Solubility of FDCA,"HAc:Water 30:70 by weight, 160° C.",13.8 wt %
same,Solubility of FDCA,"HAc:Water 30:70 by weight, 170° C.",16.8 wt %
same,Solubility of FDCA,"HAc:Water 30:70 by weight, 180° C.",20.1 wt %
same,Solubility of FDCA,"HAc:Water 30:70 by weight, 190° C.",23.8 wt %
same,Solubility of FDCA,"HAc:Water 30:70 by weight, 200° C.",27.8 wt %
same,Solubility of FDCA,"HAc:Water 40:60 by weight, 140° C.",9.1 wt %
same,Solubility of FDCA,"HAc:Water 40:60 by weight, 150° C.",11.3 wt %
same,Solubility of FDCA,"HAc:Water 40:60 by weight, 160° C.",13.9 wt %
same,Solubility of FDCA,"HAc:Water 40:60 by weight, 170° C.",16.7 wt %
same,Solubility of FDCA,"HAc:Water 40:60 by weight, 180° C.",19.9 wt %
same,Solubility of FDCA,"HAc:Water 40:60 by weight, 190° C.",23.4 wt %
same,Solubility of FDCA,"HAc:Water 40:60 by weight, 200° C.",27.1 wt %
same,Solubility of FDCA,"HAc:Water 50:50 by weight, 140° C.",9.0 wt %
same,Solubility of FDCA,"HAc:Water 50:50 by weight, 150° C.",11.0 wt %
same,Solubility of FDCA,"HAc:Water 50:50 by weight, 160° C.",13.4 wt %
same,Solubility of FDCA,"HAc:Water 50:50 by weight, 170° C.",16.0 wt %
same,Solubility of FDCA,"HAc:Water 50:50 by weight, 180° C.",19.0 wt %
same,Solubility of FDCA,"HAc:Water 50:50 by weight, 190° C.",22.1 wt %
same,Solubility of FDCA,"HAc:Water 50:50 by weight, 200° C.",25.6 wt %
same,Solubility of FDCA,"HAc:Water 60:40 by weight, 140° C.",8.2 wt %
same,Solubility of FDCA,"HAc:Water 60:40 by weight, 150° C.",10.0 wt %
same,Solubility of FDCA,"HAc:Water 60:40 by weight, 160° C.",12.1 wt %
same,Solubility of FDCA,"HAc:Water 60:40 by weight, 170° C.",14.5 wt %
same,Solubility of FDCA,"HAc:Water 60:40 by weight, 180° C.",17.0 wt %
same,Solubility of FDCA,"HAc:Water 60:40 by weight, 190° C.",19.9 wt %
same,Solubility of FDCA,"HAc:Water 60:40 by weight, 200° C.",22.9 wt %
same,Solubility of FDCA,"HAc:Water 70:30 by weight, 140° C.",6.8 wt %
same,Solubility of FDCA,"HAc:Water 70:30 by weight, 150° C.",8.3 wt %
same,Solubility of FDCA,"HAc:Water 70:30 by weight, 160° C.",10.0 wt %
same,Solubility of FDCA,"HAc:Water 70:30 by weight, 170° C.",12.0 wt %
same,Solubility of FDCA,"HAc:Water 70:30 by weight, 180° C.",14.2 wt %
same,Solubility of FDCA,"HAc:Water 70:30 by weight, 190° C.",16.6 wt %
same,Solubility of FDCA,"HAc:Water 70:30 by weight, 200° C.",19.2 wt %
same,Solubility of FDCA,"HAc:Water 80:20 by weight, 140° C.",4.9 wt %
same,Solubility of FDCA,"HAc:Water 80:20 by weight, 150° C.",6.1 wt %
same,Solubility of FDCA,"HAc:Water 80:20 by weight, 160° C.",7.5 wt %
same,Solubility of FDCA,"HAc:Water 80:20 by weight, 170° C.",9.1 wt %
same,Solubility of FDCA,"HAc:Water 80:20 by weight, 180° C.",10.9 wt %
same,Solubility of FDCA,"HAc:Water 80:20 by weight, 190° C.",12.9 wt %
same,Solubility of FDCA,"HAc:Water 80:20 by weight, 200° C.",15.1 wt %
same,Solubility of FDCA,"HAc:Water 90:10 by weight, 140° C.",3.5 wt %
same,Solubility of FDCA,"HAc:Water 90:10 by weight, 150° C.",4.5 wt %
same,Solubility of FDCA,"HAc:Water 90:10 by weight, 160° C.",5.6 wt %
same,Solubility of FDCA,"HAc:Water 90:10 by weight, 170° C.",7.0 wt %
same,Solubility of FDCA,"HAc:Water 90:10 by weight, 180° C.",8.7 wt %
same,Solubility of FDCA,"HAc:Water 90:10 by weight, 190° C.",10.6 wt %
same,Solubility of FDCA,"HAc:Water 90:10 by weight, 200° C.",12.8 wt %
same,Solubility of FDCA,"HAc:Water 95:5 by weight, 140° C.",3.3 wt %
same,Solubility of FDCA,"HAc:Water 95:5 by weight, 150° C.",4.4 wt %
same,Solubility of FDCA,"HAc:Water 95:5 by weight, 160° C.",5.7 wt %
same,Solubility of FDCA,"HAc:Water 95:5 by weight, 170° C.",7.3 wt %
same,Solubility of FDCA,"HAc:Water 95:5 by weight, 180° C.",9.3 wt %
same,Solubility of FDCA,"HAc:Water 95:5 by weight, 190° C.",11.6 wt %
same,Solubility of FDCA,"HAc:Water 95:5 by weight, 200° C.",14.3 wt %
same,"Solubility at T, wt % in solvent","HAc:Water 0:100, 130° C. (test Comp. 4)",5.3 wt % in solvent
same,"Solubility at temp., wt % in solvent","HAc:Water 0:100, 180° C. (test Ex. 3)",18.4 wt % in solvent
same,"Solubility at T, wt % in solvent","HAc:Water 70:30, 125° C. (test Comp. 3)",6.1 wt % in solvent
same,"Solubility at temp., wt % in solvent","HAc:Water 70:30, 180° C. (tests Ex. 1, Ex. 2)",14.2 wt % in solvent
